# From patent US10815197B2, “N-sulfonyl benzamides as voltage-gated sodium channel inhibitors” (SHANGHAI HAIYAN PHARMACEUTICAL TECHNOLOGY CO., LTD., priority 2016, dated 2020)
# Like-named read-outs stand apart in the source and are kept apart here.
# Legend:
# hNav1.7 = biological target: T1, hNav1.7 (Homo sapiens, UniProt Q15858); experiment: Manual patch clamp experiment hNav1.7 (CHO-hNav1.7 stable cell line); format: cell-based; settings: for inhibition at 0.1 µM: read-out: Inhibition of Nav1.7 100 nM(%); for inhibition at 1 µM: read-out: Inhibition of Nav1.7 1000 nM(%)
# T1 construct: host or cells: CHO
# T1 sequence (Q15858 whole entry): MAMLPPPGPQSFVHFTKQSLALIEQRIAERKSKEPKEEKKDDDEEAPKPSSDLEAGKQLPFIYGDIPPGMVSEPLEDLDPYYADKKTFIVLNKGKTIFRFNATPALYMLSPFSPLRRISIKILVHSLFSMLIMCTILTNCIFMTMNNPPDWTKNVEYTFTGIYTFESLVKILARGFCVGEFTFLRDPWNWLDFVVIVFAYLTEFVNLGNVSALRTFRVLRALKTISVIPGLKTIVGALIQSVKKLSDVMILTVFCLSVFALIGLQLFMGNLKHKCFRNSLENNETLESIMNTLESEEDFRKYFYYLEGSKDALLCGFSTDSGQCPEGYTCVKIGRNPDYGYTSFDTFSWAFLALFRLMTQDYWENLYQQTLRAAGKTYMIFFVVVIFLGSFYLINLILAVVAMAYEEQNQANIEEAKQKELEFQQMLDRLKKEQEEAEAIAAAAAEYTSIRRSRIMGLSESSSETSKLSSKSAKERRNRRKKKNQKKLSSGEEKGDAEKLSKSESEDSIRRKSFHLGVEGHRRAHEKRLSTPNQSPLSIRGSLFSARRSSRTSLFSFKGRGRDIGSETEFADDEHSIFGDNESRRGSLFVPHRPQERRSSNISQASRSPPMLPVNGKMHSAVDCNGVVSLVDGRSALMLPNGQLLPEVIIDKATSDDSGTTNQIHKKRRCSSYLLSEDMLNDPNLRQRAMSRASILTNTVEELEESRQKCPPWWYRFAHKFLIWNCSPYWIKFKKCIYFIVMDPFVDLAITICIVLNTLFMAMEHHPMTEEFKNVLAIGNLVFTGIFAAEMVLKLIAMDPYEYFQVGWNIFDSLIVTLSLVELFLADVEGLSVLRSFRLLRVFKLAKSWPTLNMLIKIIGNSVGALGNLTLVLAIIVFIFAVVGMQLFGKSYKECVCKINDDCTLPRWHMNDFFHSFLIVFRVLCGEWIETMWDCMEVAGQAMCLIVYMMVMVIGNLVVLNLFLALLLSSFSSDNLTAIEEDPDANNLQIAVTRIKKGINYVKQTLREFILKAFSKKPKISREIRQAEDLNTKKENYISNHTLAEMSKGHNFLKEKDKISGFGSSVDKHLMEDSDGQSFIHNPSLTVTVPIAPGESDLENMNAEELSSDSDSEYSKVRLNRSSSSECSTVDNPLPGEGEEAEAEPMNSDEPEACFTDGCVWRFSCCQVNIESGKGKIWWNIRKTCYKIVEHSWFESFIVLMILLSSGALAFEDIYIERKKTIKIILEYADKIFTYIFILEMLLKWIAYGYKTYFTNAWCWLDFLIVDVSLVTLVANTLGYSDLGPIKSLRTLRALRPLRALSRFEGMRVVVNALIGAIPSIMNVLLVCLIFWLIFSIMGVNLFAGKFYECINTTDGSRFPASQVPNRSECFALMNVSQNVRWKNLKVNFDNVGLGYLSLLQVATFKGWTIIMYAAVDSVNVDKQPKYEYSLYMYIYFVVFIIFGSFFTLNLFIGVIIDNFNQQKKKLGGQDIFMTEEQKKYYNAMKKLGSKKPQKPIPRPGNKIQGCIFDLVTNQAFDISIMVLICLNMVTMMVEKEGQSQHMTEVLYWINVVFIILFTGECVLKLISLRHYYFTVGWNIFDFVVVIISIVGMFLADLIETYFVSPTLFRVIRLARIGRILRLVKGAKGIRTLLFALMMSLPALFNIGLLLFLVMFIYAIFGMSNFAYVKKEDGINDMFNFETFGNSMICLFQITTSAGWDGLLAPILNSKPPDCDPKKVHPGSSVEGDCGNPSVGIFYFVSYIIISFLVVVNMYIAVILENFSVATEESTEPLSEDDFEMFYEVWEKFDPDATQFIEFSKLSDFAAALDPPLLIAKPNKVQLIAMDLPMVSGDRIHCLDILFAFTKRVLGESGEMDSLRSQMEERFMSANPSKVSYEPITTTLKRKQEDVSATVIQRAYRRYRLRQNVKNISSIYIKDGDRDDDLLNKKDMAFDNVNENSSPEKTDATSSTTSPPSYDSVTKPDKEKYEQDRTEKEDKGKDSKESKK
# Text: Assay 1: Manual Patch Clamp Experiment of Sodium Ion (hNav1.7, hNav1.5 and hNaV1.8) and Calcium Ion (hCav3.2) Channels
# hNav1.7, hNav1.5 Manual Patch Clamp Experiment:
# Patch voltage clamp electrophysiology allows for the direct measurement and quantification of current block of voltage-gated sodium channels (NaV's), and allows the determination of the time and voltage-dependence of block which has been interpreted as differential binding to the resting, open and inactivated states of the sodium channel to reflect the compound's inhibitory or activating effects (Hille, B., Journal of General Physiology (1977), 69: 497-515).
# Representative compounds of the present invention were subject to a manual patch clamp experiment and the purpose of this study was to test the effect of compounds on this ion channel current on a stable cell line transfected with a specific ion channel using a manual patch clamp method. The used stable cell lines CHO-hNav1.7 and HEK-hNav1.5 were from Genionics and WuXi Apptec (Shanghai) respectively.
# Manual patch clamp experimental program is as follows:
# (1) Preparation of solutions and compounds: The whole cell patch clamp technique was used to record hNav1.7 and hNav1.5 currents. In the experiment, the composition of extracellular fluid (mM): HEPES: 5, NaCl: 40, KCl: CaCl2: 1, MgCl2: 1, CdCl2: 0.1, TEA-Cl: 20. The pH was adjusted to 7.3 with NaOH and the osmotic pressure was adjusted to 310-320 mOsm with sucrose, filtered and stored at 4° C. The composition of the intracellular fluid (mM): HEPES: 10, NaCl: 10, CsOH: 5, CsF: 140, EGTA: 1. The pH was adjusted to 7.3 with CsOH and the osmotic pressure was adjusted to 280-290 mOsm with sucrose, filtered and stored at −20° C.
# The positive control and the test compound were firstly dissolved in 100% DMSO (Sigma-Aldrich, D2650), configured as stock solution at a concentration (100 nM, 1000 nM).) The above stock solution was serially diluted with DMSO prior to the experiment, the solution was further diluted with extracellular solution to obtain the test solution of the desired concentration.
# (2) Manual Patch Clamp Experiment: The cell suspension was added to a 35 mm petri dish and placed on an inverted microscope stage. The cells were perfused with an extracellular fluid and the flow rate was 1-2 mL/min after cell adherence. The glass microelectrode was prepared in two steps by a microelectrode puller with an inlet water resistance of 2-5 MΩ. A/D-D/A digital-analog conversion was performed by Digidata 1440 (Molecular Devices) and pCLAMP software (version 10.2, Molecular Devices) for stimulation and signal acquisition; the signal was amplified by patch clamp amplifier (Multiclamp 700B, Molecular Devices), and filtering is 4 KHz.
# Two different voltage stimulation procedures were used in the hNav1.7 and hNav1.5 manual patch clamp experiments.
# One is the inactivation stimulation program, the clamp potential is set at V1/2 of the corresponding channel, i.e., about 50% of the channels are inactivated, then the voltage is applied to −120 mV for 50 ms, then depolarized to −10 mV for 20 ms leading to sodium current, and finally returned to the clamp potential. This stimulation program can also be called channel state-dependent voltage stimulation program.
# The other is the non-inactivation stimulation program, the clamp potential is maintained at −120 mV, voltage stimulation is given to −10 mV for 20 ms leading to sodium current, and finally returned to the clamp potential. That is, all channels have not experienced inactivation status, but activate directly from the resting state under the conditions of the stimulation program.
# The time intervals of these two voltage stimulation programs were 10 s. The inhibitory effect of the compound was calculated by the change of the current before and after dosing, the IC50 value was fitted by the Hill equation.
# [1] = Metabolism stability assay, human liver microsomes; format: in vitro ADME; settings: for half-life at 1 µM: pH 7.4; for metabolic stability (in words): from Table 7
# Protocol: Assay 4: Metabolism Stability Assay 1. […] Buffer A: 1 L solution of 100 mM potassium dihydrogen phosphate containing 1 mM EDTA (Sigma, V900157-100G) was prepared. Buffer B: 1 L solution of 100 mM dipotassium hydrogen phosphate containing 1 mM EDTA was prepared. Buffer C: 700 mL of buffer B was taken out and titrated with buffer A to pH 7.4. 2. […] 2.2 20 μl (20 mg/mL) of liver microsomes (Corning Lot. NO. 4133007) stock solution was added to 513.4 μl of buffer C on wet ice. 0.75 mg/mL liver microsomal solution was obtained. 2.3 1.5 μl of each of the above-mentioned compound to be tested and ketanserin solution was added to 498.5 μl of liver microsomal solution (0.7 5 mg/mL) respectively on wet ice. 1.5 μM mixed solution of compound to be tested and 1.5 μM mixed solution of ketanserin were obtained. 2.4 At the time points 0, 5, 15, 30, 45, and 60 min, 30 μl of the mixed solution of compound to be tested and 30 μl of the mixed solution of ketanserin were dispensed into the reaction plate on wet ice, respectively. 2.5 5 mg reduced coenzyme II (Roche, 10621706001) was weighed and dissolved in 1 mL of buffer C. 6 mM reduced coenzyme II solution was obtained. The reduced coenzyme II solution was dispensed into the reaction plate. 2.6 Imipramine was dissolved to give a 10 mM solution. 10 μl of imipramine solution was added to 100 mL of blank acetonitrile to generate the internal reference. 2.7 At 0 min, 135 μL of iced acetonitrile (Merck (Lot. 1778229518)) containing the internal reference was added to each well and then 15 μL of buffer C was added. 2.8 The reaction plate was placed into a 37° C. water bath incubator for 5 min. In the reaction plate, 15 μL of reduced coenzyme II solution was added to each well to initiate the reaction, and the timing was started. At the time points of 5, 15, 30, 45, and 60 min, 135 μL of iced acetonitrile containing the internal reference was added to each well to terminate the reaction. 2.9 The reaction plate was sealed with an aluminum film, placed on a vibration mixer and shaken at 500 rpm for 5 min. The plate was then centrifuged in a centrifuge at 3750 rp for 15 min. 2.10 The sample was diluted with pure water in accordance with the ratio of 1:1 and detected by LC/MS. Half-life: 0.693/K (the slope by plotting based on the incubation time and logarithm of the concentration value) Clearance ratio: (0.693/half-life)*(1/protein concentration (0.5 mg/mL))*(proportional factor) Wherein, the K value and the proportional factor were calculated by those skilled in the art according to the methods described in the prior art and contained in the instructions of the liver microsome product.
# [2] = test system: SNL-induced cold allodynia in rats; experiment: Cold allodynia in SNL (spinal nerve ligation) rats; format: in vivo, rat
# Text: Assay 3: Cold Allodynia in SNL
# The experimental animals were male Sprague-Dawley rats, weighing 140-150 g at the beginning of the experiment. The animals were purchased from Slack company, and food and water were supplied ad lib after purchase. Rats were group-housed, four rats/cage, and individually identified by marking on the tail.
# Test Compound and Grouping:
# Vehicle: 5% dimethylacetamide(Sinopharm Technology), 5% solutol (Sigma) and 90% saline
# Positive control: Pregabalin;
# Test compound: compound Z-164;
# The positive control and solvent composition of the test compound are 5% dimethylacetamide, 5% solutol and 90% saline.
# 30 mg/kg Compound Z-164:1.23 mL of dimethylacetamide was added to 148.11 mg of compound Z-164, stirred well until fully dissolved, and then 1.23 mL solutol was added and mixed well. Final volume was made up with 90% saline to 21.44 mL and mixed well before oral administration.
# 30 mg/kg Pregabalin: 1.08 mL of dimethylacetamide was added to 129.48 mg of Pregabalin, stirred well until fully dissolved, and then 1.08 mL solutol was added and mixed well. Final volume was made up with 90% saline to 21.58 mL and mixed well before oral administration.
# 1.1. Spinal Nerve Ligation (SNL) model • Surgical procedures are performed aseptically. • The surgical instruments (scissors, tweezers, scalpels, surgical cotton, sutures, retractor) are sterilized prior to surgery. • Animals were anesthetized with pentobarbital (50 mg/kg, i.p.). A toe pinch was used to ensure that the animals were fully anesthetized prior to surgery. Put ophthalmic ointment in the animal's eyes to prevent the corneas from drying out. • The fur on the surgical area of animal's lower body was shaved, and the skin of the surgical area was swabbed with 3 rounds of Betadine and 70% ethanol. The skin was allowed to dry before surgery. • A longitudinal incision will be made by scalpel at the lower lumbar and sacral levels, exposing the paraspinal muscles on the left side. The retractor was used to separate the muscles and tissues to expose the vertebra. • The left L5 and L6 spinal nerves will be isolated and tightly ligated with 6-0 silk thread. • The wound was closed with sutures. • The surgical instruments were cleaned, and sterilized by using a glass bead sterilizer. • Animals were placed on the electric blanket after surgery. Inject 5 ml sterile saline to prevent dehydration. The animals were returned to their home cage after fully awake (walking around).
# 1.2. Baseline Test of Cold Allodynic and Grouping
# The baseline of cold allodynic was measured in rats two days before dosing. Use a pipette to apply 100 μl of acetone to the animal's lateral hind paw skin and the time of slapping, flinching, lifting, licking of the affected paw were recorded for one minute. Acetone was applied twice in total and the two applications were 10 minutes apart. The sum of the two times was recorded as cold allodynic time in rats. The rats were grouped randomized according to the results of baseline test of cold allodynic the day before dosing.
# 1.3. Cold Allodynic Testing
# A pipette was used to apply 100 μl of acetone to the animal's lateral hind paw skin two hours after dosing and the time of slapping, flinching, lifting, licking of the affected paw were recorded for one minute. Acetone was applied twice and the two applications were 10 minutes apart. The sum of the two times was recorded as cold allodynic time in rats.
# Oral administration was performed two hours before cold allodynic testing.
# 1.5. Data Collection and Analysis
# Data were collected with Excel and analyzed with Prism.
# [3] = 30 mg/kg p.o., two hours after dosing
Compound,inhibition at 0.1 µM (hNav1.7; compound at 100 nM),inhibition at 1 µM (hNav1.7; compound at 1000 nM),Clearance [1],half-life at 1 µM [1],also measured
"O=C(NS(=O)(=O)C1CC1)c1cc(Cl)c(OC[C@H]2CCCN2c2ccc(C(F)(F)F)cc2)cc1F [Compound Z-80, (R)-5-chloro-N-(cyclopropylsulfonyl)-2-fluoro-4-((1-(4-(trifluoromethyl)phenyl)pyrrolidine-2-yl)methoxy)benzamide]",90.5%,96.8%,36.37 mL/min/kg,0.796 h,
"O=C(NS(=O)(=O)C1CC1)c1cc(Cl)c(OC2CCN(c3ccc(Cl)c(Cl)c3)CC2)cc1F [Compound Z-117, 5-chloro-N-(cyclopropylsulfonyl)-4-((1-(3,4-dichlorophenyl)piperidin-4-yl)oxy)-2-fluorobenzamide]",89.3%,96.1%,5.41 mL/min/kg,5.36 h,
O=C(NS(=O)(=O)C1CC1)c1cc(Cl)c(CN2CCN(c3ccc(OC(F)(F)F)c(Cl)c3)CC2)cc1F [Compound Z-92],94.5%,97.3%,0.07 mL/min/kg,420 h,
"O=C(NS(=O)(=O)C1CC1)c1cc(Cl)c(CN2CCN(c3ccc(Cl)c(Cl)c3)CC2)cc1F [Compound Z-89, 5-chloro-N-(cyclopropylsulfonyl)-4-((4-(3,4-dichlorophenyl)piperazin-1-yl)methyl)-2-fluorobenzamide]",,,6.49 mL/min/kg,4.46 h,inhibition at 0.1 µM (hNav1.7): 94.8%; inhibition at 1 µM (hNav1.7): 99.7%
O=C(NS(=O)(=O)C1CC1)c1cc(Cl)c(CN2CCN(c3ccc(OC(F)(F)F)cn3)CC2)cc1F [Compound Z-159],90.6%,97.3%,3.69 mL/min/kg,7.84 h,
Cc1cc(C(=O)NS(=O)(=O)C2CC2)c(F)cc1OC[C@H]1CCCN1c1ccc(C(F)(F)F)cn1 [Compound Z-195],76.7%,92.7%,20.86 mL/min/kg,1.39 h,
"Cc1cc(N2CCN(Cc3cc(F)c(C(=O)NS(C)(=O)=O)cc3Cl)CC2)ccc1Cl [Compound C13, reference compound]",,,138.91 mL/min/kg,0.208 h,metabolic stability (in words) [1]: significantly reduced
"O=C(NS(=O)(=O)C1CC1)c1cc(Cl)c(OC[C@H]2CCCN2c2ccc(C(F)(F)F)nc2)cc1F [Compound Z-119, (R)-5-chloro-N-(cyclopropylsulfonyl)-2-fluoro-4-((1-(6-(trifluoromethyl)pyridin-3-yl)pyrrolidin-2-yl)methoxy) benzamide]",,,22.57 mL/min/kg,1.28 h,
"CC(C)C[C@H](CN)CC(=O)O [Positive control, Pregabalin, reference compound]",,,,,"Anti-allodynia Effect (mean, %) [2, 3]: 74.9%; Response duration (mean, s) the next day (Baseline) [2, 3]: 13.005 s; inhibition of SNL-induced cold allodynia (in words) ([2]; 30 mg/kg, 2 hr post oral administration): inhibition of SNL-induced cold allodynia; Response duration (mean, s) the first day (Baseline) ([2]; acetone cold allodynia, baseline before dosing): 36.847 s"
"CS(=O)(=O)NC(=O)c1cc(Cl)c(CN2CCN(c3ccc(C4CC4)c(Cl)c3)CC2)cc1F [Compound C12, reference compound]",,,78.28 mL/min/kg,0.37 h,metabolic stability (in words) [1]: significantly reduced
